Reference: ChEMBL document CHEMBL4118157, “Efficiency of newly prepared thiazole derivatives against some cutaneous fungi” (2018)
≈ marks a conversion by molar mass, not a printed value.

Columns and labels:
[1] = tested on: Candida albicans; assay: Antifungal activity against Candida albicans after 48 hrs by broth microdilution method; format: functional
[2] = tested on: Nannizzia gypsea; assay: Antifungal activity against Microsporum gypseum after 72 hrs by broth microdilution method; format: functional
[3] = tested on: Trichophyton mentagrophytes; assay: Antifungal activity against Trichophyton mentagrophytes after 72 hrs by broth microdilution method; format: functional
[4] = tested on: Candida albicans; assay: Fungicidal activity against Candida albicans measured after 72 hrs; format: functional
[5] = tested on: Nannizzia gypsea; assay: Fungicidal activity against Microsporum gypseum measured after 96 hrs; format: functional
[6] = tested on: Trichophyton mentagrophytes; assay: Fungicidal activity against Trichophyton mentagrophytes measured after 96 hrs; format: functional
[7] = tested on: Candida albicans; assay: Inhibition of Candida albicans keratinase activity at MIC incubated for 5 days under non-shaking condition and subsequent incubation for 5 days under shaking condition by UV-vis spectrophotometric analysis relative to control
[8] = tested on: Nannizzia gypsea; assay: Inhibition of Microsporum gypseum keratinase activity at MIC incubated for 5 days under non-shaking condition and subsequent incubation for 5 days under shaking condition by UV-vis spectrophotometric analysis relative to control
[9] = tested on: Trichophyton mentagrophytes; assay: Inhibition of Trichophyton mentagrophytes keratinase activity at MIC incubated for 5 days under non-shaking condition and subsequent incubation for 5 days under shaking condition by UV-vis spectrophotometric analysis relative to control
[10] = tested on: Candida albicans; assay: Inhibition of Candida albicans keratinase activity at 2 ppm incubated for 5 days under non-shaking condition and subsequent incubation for 5 days under shaking condition by UV-vis spectrophotometric analysis relative to control
[11] = tested on: Nannizzia gypsea; assay: Inhibition of Microsporum gypseum keratinase activity at 4 ppm incubated for 5 days under non-shaking condition and subsequent incubation for 5 days under shaking condition by UV-vis spectrophotometric analysis relative to control
[12] = tested on: Trichophyton mentagrophytes; assay: Inhibition of Trichophyton mentagrophytes keratinase activity at 4 ppm incubated for 5 days under non-shaking condition and subsequent incubation for 5 days under shaking condition by UV-vis spectrophotometric analysis relative to control
[13] = tested on: Candida albicans; assay: Inhibition of ergosterol biosynthesis in Candida albicans at MIC by spectrophotometric method relative to control; format: functional
[14] = tested on: Nannizzia gypsea; assay: Inhibition of ergosterol biosynthesis in Microsporum gypseum at MIC by spectrophotometric method relative to control; format: functional
[15] = tested on: Trichophyton mentagrophytes; assay: Inhibition of ergosterol biosynthesis in Trichophyton mentagrophytes at MIC by spectrophotometric method relative to control; format: functional
[16] = tested on: Candida albicans; assay: Antifungal activity against Candida albicans infected in guinea pig skin assessed as recovery from infection at 10 mg/g administered once daily via superficial route for 15 days measured after 30 days post last dose relative to control; format: functional
[17] = tested on: Nannizzia gypsea; assay: Antifungal activity against Microsporum gypseum infected in guinea pig skin assessed as recovery from infection at 10 mg/g administered once daily via superficial route for 15 days measured after 30 days post last dose relative to control; format: functional
[18] = tested on: Trichophyton mentagrophytes; assay: Antifungal activity against Trichophyton mentagrophytes infected in guinea pig skin assessed as recovery from infection at 10 mg/g administered once daily via superficial route for 15 days measured after 30 days post last dose relative to control; format: functional
[19] = tested on: Fungi; assay: Inhibition of fungal keratinase activity at 0.1 to 10 mg/ml relative to control
[20] = tested on: Candida albicans; assay: Antifungal activity against Candida albicans; format: functional
[21] = tested on: Trichophyton mentagrophytes; assay: Antifungal activity against Trichophyton mentagrophytes; format: functional
[22] = tested on: Fungi; assay: Inhibition of fungal keratinase activity at 10 mg/ml relative to control
[23] = tested on: Trichophyton terrestre; assay: Inhibition of Trichophyton terrestre keratinase activity at 10 ug/ml incubated for 5 days under non-shaking condition and subsequent incubation for 5 days under shaking condition by UV-vis spectrophotometric analysis relative to control
[24] = tested on: Nannizzia gypsea; assay: Inhibition of Microsporum gypseum keratinase activity at 10 ug/ml incubated for 5 days under non-shaking condition and subsequent incubation for 5 days under shaking condition by UV-vis spectrophotometric analysis relative to control
[25] = tested on: Trichophyton rubrum; assay: Inhibition of Trichophyton rubrum keratinase activity at 10 ug/ml incubated for 5 days under non-shaking condition and subsequent incubation for 5 days under shaking condition by UV-vis spectrophotometric analysis relative to control
[26] = tested on: Epidermophyton floccosum; assay: Inhibition of Epidermophyton floccosum keratinase activity at 10 ug/ml incubated for 5 days under non-shaking condition and subsequent incubation for 5 days under shaking condition by UV-vis spectrophotometric analysis relative to control
[27] = tested on: Candida albicans; assay: Inhibition of Candida albicans keratinase activity at 8 ppm incubated for 5 days under non-shaking condition and subsequent incubation for 5 days under shaking condition by UV-vis spectrophotometric analysis relative to control
[28] = tested on: Nannizzia gypsea; assay: Inhibition of Microsporum gypseum keratinase activity at 8 ppm incubated for 5 days under non-shaking condition and subsequent incubation for 5 days under shaking condition by UV-vis spectrophotometric analysis relative to control
[29] = tested on: Trichophyton mentagrophytes; assay: Inhibition of Trichophyton mentagrophytes keratinase activity at 16 ppm incubated for 5 days under non-shaking condition and subsequent incubation for 5 days under shaking condition by UV-vis spectrophotometric analysis relative to control

| Structure (SMILES) | MIC [1] [mg/L] | MIC [2] [mg/L] | MIC [3] [mg/L] | MFC [4] [mg/L] | MFC [5] [mg/L] | MFC [6] [mg/L] | also measured |
| --- | --- | --- | --- | --- | --- | --- | --- |
| Cc1nc(NN=C2CCN(C)CC2)sc1/N=N/c1ccccc1 | 16 (≈ 48.7 µM) | 64 (≈ 195 µM) | 64 (≈ 195 µM) | 128 (≈ 390 µM) | 128 (≈ 390 µM) | 245 (≈ 746 µM) | inhibition [7]: 33.4 to 46.3%; inhibition [8]: 33.4 to 46.3%; inhibition [9]: 33.4 to 46.3% |
| CN1CCC(=NNC2=NC(=O)/C(=N\Nc3ccc(Cl)cc3)S2)CC1 | 64 (≈ 175 µM) | 128 (≈ 351 µM) | 128 (≈ 351 µM) | 128 (≈ 351 µM) | 256 (≈ 702 µM) | > 256 |  |
| COc1ccc(/N=N/c2sc(NN=C3CCN(C)CC3)nc2C)cc1 | 64 (≈ 179 µM) | 128 (≈ 357 µM) | 128 (≈ 357 µM) | 128 (≈ 357 µM) | 256 (≈ 714 µM) | > 256 |  |
| Cc1ccccc1/N=N/c1sc(NN=C2CCN(C)CC2)nc1C | 8 (≈ 23.4 µM) | 32 (≈ 93.4 µM) | 32 (≈ 93.4 µM) | 32 (≈ 93.4 µM) | 64 (≈ 187 µM) | 128 (≈ 374 µM) |  |
| CN1CCC(=NNC2=NC(=O)/C(=N\Nc3ccccc3)S2)CC1 | 2 (≈ 6.05 µM) | 4 (≈ 12.1 µM) | 4 (≈ 12.1 µM) | 4 (≈ 12.1 µM) | 8 (≈ 24.2 µM) | 16 (≈ 48.4 µM) | inhibition [10]: 96%; inhibition [11]: 94%; inhibition [12]: 91.4%; inhibition (INH) [13]: 73.3%; inhibition (INH) [14]: 86.4%; inhibition (INH) [15]: 74.3%; Activity [16]: 100%; Activity [17]: 91%; Activity [18]: 87% |
| Cc1ccc(/N=N/c2sc(NN=C3CCN(C)CC3)nc2C)cc1 | 16 (≈ 46.7 µM) | 32 (≈ 93.4 µM) | 32 (≈ 93.4 µM) | 64 (≈ 187 µM) | 128 (≈ 374 µM) | 256 (≈ 748 µM) |  |
| CN1CCC(=NNc2nc(-c3ccccc3)c(/N=N/c3ccccc3)s2)CC1 | 2 (≈ 5.12 µM) | 4 (≈ 10.2 µM) | 4 (≈ 10.2 µM) | 4 (≈ 10.2 µM) | 16 (≈ 41 µM) | 16 (≈ 41 µM) | inhibition [10]: 77 to 94%; inhibition [11]: 77 to 94%; inhibition [12]: 77 to 94% |
| N#C/C(=C1/SCC(c2ccccc2Cl)S1)n1ccnc1 (stereo not drawn) |  |  |  |  |  |  | inhibition [19]: 40 to 70% |
| OC(Cn1cncn1)(Cn1cncn1)c1ccc(F)cc1F [FLUCONAZOLE] | 8 (≈ 26.1 µM) | 8 (≈ 26.1 µM) | 16 (≈ 52.2 µM) | 32 (≈ 104 µM) | 64 (≈ 209 µM) | 64 (≈ 209 µM) | inhibition [7]: 61.3 to 72.9%; inhibition [8]: 61.3 to 72.9%; inhibition [9]: 61.3 to 72.9%; Activity [16]: 97%; Activity [17]: 84%; Activity [18]: 77%; MIC [20]: 0.34 mg/L (≈ 1.11 µM); MIC [21]: 23.9 mg/L (≈ 78 µM) |
| Cc1nc(NN=C2CCN(C)CC2)sc1/N=N/c1ccc(Cl)cc1Cl | 16 (≈ 40.3 µM) | 64 (≈ 161 µM) | 64 (≈ 161 µM) | 128 (≈ 322 µM) | 128 (≈ 322 µM) | > 256 |  |
| COc1ccc(/N=N/c2sc(NN=C3CCN(C)CC3)nc2-c2ccccc2)cc1 | 2 (≈ 4.76 µM) | 4 (≈ 9.51 µM) | 4 (≈ 9.51 µM) | 4 (≈ 9.51 µM) | 8 (≈ 19 µM) | 32 (≈ 76.1 µM) | inhibition [10]: 88.8 to 95%; inhibition [11]: 88.8 to 95%; inhibition [12]: 88.8 to 95%; Activity [16]: 100%; Activity [17]: 92%; Activity [18]: 85% |
| Cc1nc(NN=C2CCN(C)CC2)sc1/N=N/c1cccc(Cl)c1 | 32 (≈ 88.2 µM) | 64 (≈ 176 µM) | 128 (≈ 353 µM) | 128 (≈ 353 µM) | 256 (≈ 705 µM) | > 256 |  |
| c1ccc(-c2ccc(C(c3ccccc3)n3ccnc3)cc2)cc1 (stereo not drawn) |  |  |  |  |  |  | inhibition [22]: 50% |
| CN(C/C=C/C#CC(C)(C)C)Cc1cccc2ccccc12 |  |  |  |  |  |  | inhibition [23]: 66%; inhibition [24]: 71.9%; inhibition [25]: 51.7%; inhibition [26]: 72.3% |
| CN1CCC(=NNc2nc(-c3ccccc3)c(/N=N/c3ccc([N+](=O)[O-])cc3)s2)CC1 | 8 (≈ 18.4 µM) | 8 (≈ 18.4 µM) | 16 (≈ 36.7 µM) | 16 (≈ 36.7 µM) | 32 (≈ 73.5 µM) | 32 (≈ 73.5 µM) | inhibition [27]: 66.1 to 92.2%; inhibition [28]: 66.1 to 92.2%; inhibition [29]: 66.1 to 92.2% |
| Cc1nc(NN=C2CCN(C)CC2)sc1/N=N/c1ccc([N+](=O)[O-])cc1 | 64 (≈ 171 µM) | 128 (≈ 343 µM) | 128 (≈ 343 µM) | 256 (≈ 686 µM) | > 256 | > 256 | inhibition [7]: 10.1 to 31.4%; inhibition [8]: 10.1 to 31.4%; inhibition [9]: 10.1 to 31.4%; inhibition (INH) [13]: 28.5%; inhibition (INH) [14]: 33.1%; inhibition (INH) [15]: 21.4% |
| CN1CCC(=NNc2nc(-c3ccccc3)c(/N=N/c3ccc(Cl)cc3)s2)CC1 | 4 (≈ 9.41 µM) | 4 (≈ 9.41 µM) | 8 (≈ 18.8 µM) | 8 (≈ 18.8 µM) | 16 (≈ 37.7 µM) | 32 (≈ 75.3 µM) |  |
| CN1CCC(=NNC2=NC(=O)/C(=N\Nc3cccc(Cl)c3)S2)CC1 | 32 (≈ 87.7 µM) | 64 (≈ 175 µM) | 128 (≈ 351 µM) | 128 (≈ 351 µM) | 256 (≈ 702 µM) | > 256 |  |
| CN1CCC(=NNC2=NC(=O)/C(=N\Nc3ccc([N+](=O)[O-])cc3)S2)CC1 | 64 (≈ 170 µM) | 128 (≈ 341 µM) | 128 (≈ 341 µM) | 256 (≈ 682 µM) | > 256 | > 256 |  |
| Cc1ccc(/N=N/c2sc(NN=C3CCN(C)CC3)nc2-c2ccccc2)cc1 | 2 (≈ 4.94 µM) | 4 (≈ 9.89 µM) | 4 (≈ 9.89 µM) | 4 (≈ 9.89 µM) | 8 (≈ 19.8 µM) | 16 (≈ 39.6 µM) |  |
| Cc1nc(NN=C2CCN(C)CC2)sc1/N=N/c1ccc(Cl)cc1 | 16 (≈ 44.1 µM) | 16 (≈ 44.1 µM) | 16 (≈ 44.1 µM) | 32 (≈ 88.2 µM) | 128 (≈ 353 µM) | 128 (≈ 353 µM) |  |
| Cc1nc(NN=C2CCN(C)CC2)sc1/N=N/c1ccccc1Cl | 32 (≈ 88.2 µM) | 64 (≈ 176 µM) | 64 (≈ 176 µM) | 128 (≈ 353 µM) | 256 (≈ 705 µM) | > 256 |  |
